# Measurements published in patent publication US7973056B2, “Triazole derivative or salt thereof” (Fujifilm Finechemicals Co., Ltd, priority 2008, dated 2011).
# Test system: Aspergillus niger ATCC 8740
# Test: Antifungal activity test (in vitro), MIC
# Format: cell-based
# Conditions: ATCC8740
# Description: Minimum inhibitory concentration (MIC) of each of the compounds obtained in Examples 1 to 12 was measured for respective fungi at MOS Pharm Service, by the methods described in Antimicrobial Agents and Chemotherapy, vol. 3, pp. 40-48 (1973), Antimicrobial Agents and Chemotherapy, vol. 33, pp. 215-222 (1989) and Antimicrobial Agents and Chemotherapy, vol. 38, pp. 2362-2368 (1994). The measuring conditions are shown in the following. In this case, Voriconazol was used as a comparative compound. Aspergillus niger ATCC 8740; Cultured at 28° C. for 2 days using potato dextrose broth, and this was used as a cell suspension. Each of the compounds of the invention was adjusted to a concentration of 1% by weight using dimethyl sulfoxide (DMSO) and a medium similar to the respective medium used in the above-mentioned fungal culture, having a final concentration of from 0.001 to 100 μg/ml, was prepared. Each of the inoculation cell suspensions prepared by the above-mentioned methods was inoculated onto this agar plate. […] In this connection, Voriconazol was used as the comparative compound C-1.
smiles,measurement,value
"C[C@@H](N1CC=C(c2ccccn2)CC1)[C@](O)(Cn1cncn1)c1ccc(F)cc1F [I-3, (2R,3R)-2-(2,4-difluorophenyl)-3-(3′,6′-dihydro-2,4′-bipyridin-1′(2′H)-yl)-1-(1,2,4-triazol-1-yl)butan-2-ol]",MIC,1 µg/mL
